The record followed here is ChEMBL document CHEMBL3046231 (Med Chem Res, 2008).

The first series has as its system Mus musculus. The series is described as follows: Antidepressant activity in Mus musculus albino (mouse) assessed as reversal of reserpine-induced ptosis at 75 umole/kg, ip after 3 hr by chi-square test relative to control. The format is functional.
Settings: not given
Consider `COc1cc(NC(=S)N(C)CCC(Oc2ccc(C(F)(F)F)cc2)c2ccccc2)cc(OC)c1OC` (configuration not stated), for which the Activity worked out at 100%.

`CN(CCC(Oc1ccc(C(F)(F)F)cc1)c1ccccc1)C(=S)NC(C)(C)C` (configuration not stated): the Activity is 100%.

As to `COc1ccc(NC(=S)N(C)CCC(Oc2ccc(C(F)(F)F)cc2)c2ccccc2)cc1` (configuration not stated), the Activity worked out at 100%.

On to `CC(C)NC(=S)N(C)CCC(Oc1ccc(C(F)(F)F)cc1)c1ccccc1` (configuration not stated), for which the Activity was 100%.

Regarding `CN(C[C@@H]1CCc2ccccc2[C@@H]1Oc1ccc(C(F)(F)F)cc1)C(=S)NCCc1ccccc1`, the Activity amounted to 100%.

Consider `CN(C[C@@H]1CCc2ccccc2[C@@H]1Oc1ccc(C(F)(F)F)cc1)C(=O)NC1CCCCC1`, for which the Activity is 100%.

`CN(C[C@@H]1CCc2ccccc2[C@@H]1Oc1ccc(C(F)(F)F)cc1)C(=O)NCCc1ccccc1`: the Activity is given as 100%.

As to `CC1CCC(NC(=O)N(C)C[C@@H]2CCc3ccccc3[C@@H]2Oc2ccc(C(F)(F)F)cc2)CC1` (some centres not stated), the Activity was found to be 80%.

With `CN(CCC(Oc1ccc(C(F)(F)F)cc1)c1ccccc1)C(=O)NC1CCCCC1` (configuration not stated), the Activity was 80%.

For the molecule `CN(CCC(Oc1ccc(C(F)(F)F)cc1)c1ccccc1)C(=S)NCCc1ccccc1` (configuration not stated), the Activity was 40%.

Regarding `CN(CCC(Oc1ccc(C(F)(F)F)cc1)c1ccccc1)C(=S)NCc1ccccc1` (configuration not stated), the Activity was found to be 100%.

For the molecule `Cc1ccc(NC(=S)N(C)CCC(Oc2ccc(C(F)(F)F)cc2)c2ccccc2)cc1` (configuration not stated), the Activity worked out at 80%.

Consider `CN(CCC(Oc1ccc(C(F)(F)F)cc1)c1ccccc1)C(=O)NCCc1ccccc1` (configuration not stated), for which the Activity is on record as 100%.

For the molecule `CN(CCC(Oc1ccc(C(F)(F)F)cc1)c1ccccc1)C(=S)NC1CCCCC1` (configuration not stated), the Activity amounted to 100%.

Turning to `CN(CCC(Oc1ccc(C(F)(F)F)cc1)c1ccccc1)C(=S)Nc1ccccc1` (configuration not stated), the Activity is listed as 100%.

Turning to `CN(CCC(Oc1ccc(C(F)(F)F)cc1)c1ccccc1)C(=S)NC(=O)c1ccccc1` (configuration not stated), the Activity is reported as 100%.

Turning to `CC1CCC(NC(=S)N(C)CCC(Oc2ccc(C(F)(F)F)cc2)c2ccccc2)CC1` (configuration not stated), the Activity turned out to be 60%.

In the case of `CNCCC(Oc1ccc(C(F)(F)F)cc1)c1ccccc1` (configuration not stated) [FLUOXETINE], the Activity is recorded as 0%.

For `COC(=O)[C@H]1[C@H]2C[C@@H]3c4[nH]c5cc(OC)ccc5c4CCN3C[C@H]2C[C@@H](OC(=O)c2cc(OC)c(OC)c(OC)c2)[C@@H]1OC` [RESERPINE], the Activity worked out at 100%.

In a further series the test system is Mus musculus. The series is described as follows: Anorexigenic activity in Mus musculus albino (mouse) assessed as reduction of milk intake at 75 umole/kg, ip relative to control. The format is functional. The arrangement: scale not given: the % may be the effect or the level left.
Settings: not given
In the case of `CNCCC(Oc1ccc(C(F)(F)F)cc1)c1ccccc1` (configuration not stated) [FLUOXETINE], the Activity is reported as 78.49%.

Another series relates to Mus musculus. The series is described as follows: Toxicity in Mus musculus albino (mouse) assessed as effect on gross behavior at 75 umole/kg, ip. The format is organism-based. The note with it: in vivo.
For `COc1cc(NC(=S)N(C)CCC(Oc2ccc(C(F)(F)F)cc2)c2ccccc2)cc(OC)c1OC` (configuration not stated), the Activity entry is “Non-toxic”.

As for `CN(CCC(Oc1ccc(C(F)(F)F)cc1)c1ccccc1)C(=S)NC(C)(C)C` (configuration not stated), the Activity entry is given as “Non-toxic”.

For the molecule `COc1ccc(NC(=S)N(C)CCC(Oc2ccc(C(F)(F)F)cc2)c2ccccc2)cc1` (configuration not stated), the Activity result is listed as “Non-toxic”.

In the case of `CC(C)NC(=S)N(C)CCC(Oc1ccc(C(F)(F)F)cc1)c1ccccc1` (configuration not stated), the Activity entry is “Non-toxic”.

Consider `CN(C[C@@H]1CCc2ccccc2[C@@H]1Oc1ccc(C(F)(F)F)cc1)C(=S)NCCc1ccccc1`, for which the Activity entry is reported as “Non-toxic”.

Turning to `CN(C[C@@H]1CCc2ccccc2[C@@H]1Oc1ccc(C(F)(F)F)cc1)C(=O)NC1CCCCC1`, the Activity result is “Non-toxic”.

`CN(C[C@@H]1CCc2ccccc2[C@@H]1Oc1ccc(C(F)(F)F)cc1)C(=O)NCCc1ccccc1`: the Activity result is recorded as “Non-toxic”.

As to `CC1CCC(NC(=O)N(C)C[C@@H]2CCc3ccccc3[C@@H]2Oc2ccc(C(F)(F)F)cc2)CC1` (some centres not stated), the Activity result is reported as “Non-toxic”.

With `CN(CCC(Oc1ccc(C(F)(F)F)cc1)c1ccccc1)C(=O)NC1CCCCC1` (configuration not stated), the Activity result is “Non-toxic”.

On to `CN(CCC(Oc1ccc(C(F)(F)F)cc1)c1ccccc1)C(=S)NCCc1ccccc1` (configuration not stated), for which the Activity result is listed as “Non-toxic”.

In the case of `CN(CCC(Oc1ccc(C(F)(F)F)cc1)c1ccccc1)C(=S)NCc1ccccc1` (configuration not stated), the Activity result is given as “Non-toxic”.

Consider `Cc1ccc(NC(=S)N(C)CCC(Oc2ccc(C(F)(F)F)cc2)c2ccccc2)cc1` (configuration not stated), for which the Activity result was “Non-toxic”.

With `CN(CCC(Oc1ccc(C(F)(F)F)cc1)c1ccccc1)C(=O)NCCc1ccccc1` (configuration not stated), the Activity entry is on record as “Non-toxic”.

Take `CN(CCC(Oc1ccc(C(F)(F)F)cc1)c1ccccc1)C(=S)NC1CCCCC1` (configuration not stated): the Activity result is “Non-toxic”.

With `CN(CCC(Oc1ccc(C(F)(F)F)cc1)c1ccccc1)C(=S)Nc1ccccc1` (configuration not stated), the Activity entry is listed as “Non-toxic”.

Consider `CN(CCC(Oc1ccc(C(F)(F)F)cc1)c1ccccc1)C(=S)NC(=O)c1ccccc1` (configuration not stated), for which the Activity entry is “Non-toxic”.

Consider `CC1CCC(NC(=S)N(C)CCC(Oc2ccc(C(F)(F)F)cc2)c2ccccc2)CC1` (configuration not stated), for which the Activity result was “Non-toxic”.
